Reference: patent US20160159814A1, “GLYCINE TRANSPORTER INHIBITOR” (TAISHO PHARMACEUTICAL CO., LTD., priority 2013, published 2016)

Biological target: T1, human type 1 glycine transporter (GlyT1) (Homo sapiens, UniProt P48067)
T1 construct: T98G cells (glioma cells) expressing human type 1 glycine transporter (GlyT1) were used; endogenous in cells; host or cells: T98G cells (human glioma cells)
T1 sequence (P48067 1-706): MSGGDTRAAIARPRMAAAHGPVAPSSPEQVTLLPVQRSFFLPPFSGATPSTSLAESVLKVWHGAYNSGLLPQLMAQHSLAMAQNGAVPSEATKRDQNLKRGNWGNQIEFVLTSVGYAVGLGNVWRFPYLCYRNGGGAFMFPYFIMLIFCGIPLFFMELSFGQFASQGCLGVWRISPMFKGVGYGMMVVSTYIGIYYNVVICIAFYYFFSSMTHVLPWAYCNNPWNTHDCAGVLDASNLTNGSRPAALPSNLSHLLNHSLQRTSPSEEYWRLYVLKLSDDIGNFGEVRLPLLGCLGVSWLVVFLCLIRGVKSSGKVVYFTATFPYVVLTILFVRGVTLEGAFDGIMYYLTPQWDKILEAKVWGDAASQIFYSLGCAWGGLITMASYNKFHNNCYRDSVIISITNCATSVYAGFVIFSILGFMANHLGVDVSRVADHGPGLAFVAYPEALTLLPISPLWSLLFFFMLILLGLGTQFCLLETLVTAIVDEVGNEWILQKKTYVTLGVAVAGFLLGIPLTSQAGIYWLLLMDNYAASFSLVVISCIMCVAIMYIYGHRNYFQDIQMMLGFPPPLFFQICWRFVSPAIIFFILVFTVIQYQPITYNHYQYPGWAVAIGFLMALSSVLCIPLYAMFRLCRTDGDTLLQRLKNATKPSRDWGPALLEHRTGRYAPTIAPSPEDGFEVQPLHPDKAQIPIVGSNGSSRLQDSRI
Assay: Glycine uptake inhibition experiment ([3H] glycine uptake in T98G cells expressing GlyT1)
Assay type: cell-based
Conditions: not given
Method in brief: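 T98G glioma cells expressing human GlyT1 were pretreated 10 min with compound in HEPES buffer pH 7.4 (0.2% BSA), then incubated with compound plus 250 nM final [3H]glycine for 15 min at room temperature. Intracellular radioactivity was counted after NaOH lysis; 10 μM ALX5407 defined non-specific uptake. IC50 came from 10^−9–10^−5 M curves.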

In order of rising IC50:
1. C[C@H](O)c1cccc2c1C(F)(F)C(=O)N2Cc1cc(Cl)c(F)cn1 [Compound 250]  9.8 nM
2. C[C@H](O)c1cccc2c1C(F)(F)C(=O)N2Cc1cc(Cl)nc(C#N)c1 [Compound 187, 6-chloro-4-({3,3-difluoro-4-[(1S)-1-hydroxyethyl]-2-oxo-2,3-dihydro-1H-indol-1-yl}methyl)pyridine-2-carbonitrile]  34 nM
3. C[C@H](O)c1cccc2c1C(F)(F)C(=O)N2Cc1ccnc(OC(F)F)c1 [Compound 194, 1-{[2-(difluoromethoxy)pyridin-4-yl]methyl}-3,3-difluoro-4-[(1S)-1-hydroxyethyl]-1,3-dihydro-2H-indol-2-one]  43 nM
4. O=C1N(Cc2cncc(Cl)c2)c2c(F)ccc(C(O)C(F)F)c2C1(F)F (stereo not drawn) [Compound 252, 1-[(5-chloropyridin-3-yl)methyl]-4-(2,2-difluoro-1-hydroxyethyl)-3,3,7-trifluoro-1,3-dihydro-2H-indol-2-one]  46 nM
5. C[C@H](O)c1cccc2c1C(F)(F)C(=O)N2Cc1ccc(Br)nc1 [Compound 190, 1-[(6-bromopyridin-3-yl)methyl]-3,3-difluoro-4-[(1S)-1-hydroxyethyl]-1,3-dehydro-2H-indol-2-one]  51 nM
6. Cn1c(=O)c(CN2C(=O)C(F)(F)c3c(C(O)C(F)F)cccc32)nc2ccccc21 (single isomer, unassigned) [Compound 167, 3-{[4-(2,2-difluoro-1-hydroxyethyl)-3,3-difluoro-2-oxo-2,3-dihydro-1H-indol-1-yl]methyl)-1-methylquinoxalin-2(1H)-one]  62 nM
7. C[C@H](O)c1cccc2c1C(F)(F)C(=O)N2Cc1ccnc(C#N)c1Cl [Compound 192]  67 nM
8. C[C@H](O)c1cccc2c1C(F)(F)C(=O)N2Cc1cnccc1Cl [Compound 207, 1-[(4-chloropyridin-3-yl)methyl]-3,3-difluoro-4-[(1S)-1-hydroxyethyl]-1,3-dihydro-2H-indol-2-one]  94 nM
9. Cn1c(CN2C(=O)C(F)(F)c3c(C(O)C(F)F)cccc32)nc2ccccc21 (single isomer, unassigned) [Compound 170, 4-(2,2-difluoro-1-hydroxyethyl)-3,3-difluoro-1-[(1-methyl-1H-benzimidazol-2-yl)methyl]-1,3-dihydro-2H-indol-2-one]  110 nM
10. C[C@H](O)c1cccc2c1C(F)(F)C(=O)N2Cc1cnc(Cl)cn1 [Compound 199, 1-[(5-chloropyrazin-2-yl)methyl]-3,3-difluoro-4-[(1S)-1-hydroxyethyl]-1,3-dihydro-2H-indol-2-one]  110 nM
11. C[C@H](O)c1cccc2c1C(F)(F)C(=O)N2Cc1ccc(Cl)nn1 [Compound 204, 1-[(6-chloropyridazin-3-yl)methyl]-3,3-difluoro-4-[(1S)-1-hydroxyethyl]-1,3-dihydro-2H-indol-2-one]  110 nM
12. COc1cc(CN2C(=O)C(F)(F)c3c(C(O)C(F)F)cccc32)cnc1F (single isomer, unassigned) [Compound 273, 4-(2,2-difluoro-1-hydroxyethyl)-3,3-difluoro-1-[(6-fluoro-5-methoxypyridin-3-yl)methyl]-1,3-dihydro-2H-indol-2-one]  140 nM
13. N#Cc1cc(CN2C(=O)C(F)(F)c3c(C(O)C(F)F)cccc32)c(F)cn1 (single isomer, unassigned) [Compound 219, 4-{[4-(2,2-difluoro-1-hydroxyethyl)-3,3-difluoro-2-oxo-2,3-dihydro-1H-indol-1-yl]methyl)-5-fluoropyridine-2-carbonitrile]  180 nM
14. C[C@H](O)c1cccc2c1C(F)(F)C(=O)N2Cc1ccncc1Cl [Compound 185, 1-[(3-chloropyridin-4-yl)methyl]-3,3-difluoro-4-[(1S)-1-hydroxyethyl]-1,3-dihydro-2H-indol-2-one]  280 nM
15. CC(O)c1c(F)ccc2c1C(F)(F)C(=O)N2Cc1cncc(Cl)c1 (single isomer, unassigned) [Compound 181, 1-[(5-chloropyridin-3-yl)methyl]-3,3,5-trifluoro-4-(1-hydroxyethyl)-1,3-dihydro-2H-indol-2-one]  310 nM
16. O=C1N(Cc2cncc(Cl)c2)c2cc(F)cc(C(O)C(F)F)c2C1(F)F (stereo not drawn) [Compound 234, 1-[(5-chloropyridin-3-yl)methyl)-4-(2,2-difluoro-1-hydroxyethyl)-3,3,6-trifluoro-1,3-dihydro-2H-indol-2-one]  620 nM
17. COc1ccncc1CN1C(=O)C(F)(F)c2c([C@H](C)O)cccc21 [Compound 209, 3,3-difluoro-4-[(1S)-1-hydroxyethyl]-1-[(4-methoxypyridin-3-yl)methyl]-1,3-dihydro-2H-indol-2-one]  2800 nM

Same assay, conditions: glycine uptake inhibition

In order of falling IC50:
1. N#Cc1cc(CN2C(=O)C(F)(F)c3c(C(O)C(F)F)cccc32)ccn1 (single isomer, unassigned) [Compound 110, 4-{[4-(2,2-difluoro-1-hydroxyethyl)-3,3-difluoro-2-oxo-2,3-dihydro-1H-indol-1-yl]methyl}pyridine-2-carbonitrile]  2100 nM
2. O=C1N(Cc2cncc(Cl)c2)c2ccc(F)c(C(O)C(F)F)c2C1(F)F (single isomer, unassigned) [Compound 136]  1700 nM
3. C[C@H](O)c1cccc2c1C(F)(F)C(=O)N2Cc1cncc(-n2ccnn2)c1 [Compound 87, 3,3-difluoro-4-[(1S)-1-hydroxyethyl]-1-{[5-(1H-1,2,3-triazol-1-yl)pyridin-3-yl]methyl}-1,3-dihydro-2H-indol-2-one]  1500 nM
4. CC(c1cccc(Cl)n1)N1C(=O)C(F)(F)c2c([C@H](C)O)cccc21 (single isomer, unassigned) [Compound 52]  330 nM
5. O=C1N(Cc2ccnc(Cl)c2)c2cccc(C(O)C(F)F)c2C1(F)F (single isomer, unassigned) [Compound 35]  280 nM
6. O=C1N(Cc2ccnc(F)c2)c2cccc([C@@H](O)C(F)(F)F)c2C1(F)F [Compound 149, 3,3-difluoro-1-[(2-fluoropyridin-4-yl)methyl]-4-[(1R)-2,2,2-trifluoro-1-hydroxyethyl]-1,3-dihydro-2H-indol-2-one]  200 nM
7. CCC(O)c1cccc2c1C(F)(F)C(=O)N2Cc1cccc(Cl)n1 (stereo not drawn) [Compound 15, 1-[(6-chloropyridin-2-yl)methyl]-3,3-difluoro-4-(1-hydroxypropyl)-1,3-dihydro-2H-indol-2-one]  180 nM
8. C[C@H](O)c1cccc2c1C(F)(F)C(=O)N2Cc1cc2ccoc2cn1 [Compound 125, 3,3-difluoro-1-(furo[2,3-c]pyridin-5-ylmethyl)-4-[(1S)-1-hydroxyethyl]-1,3-dihydro-2H-indol-2-one]  130 nM
9. COc1ccnc(CN2C(=O)C(F)(F)c3c([C@H](C)O)cccc32)c1 [Compound 66, 3,3-difluoro-4-[(1S)-1-hydroxyethyl]-1-[(4-methoxypyridin-2-yl)methyl]-1,3-dihydro-2H-indol-2-one]  130 nM
10. C[C@H](O)c1cccc2c1C(F)(F)C(=O)N2Cc1ccc2cc[nH]c2n1 [Compound 115, 3,3-difluoro-4-[(1S)-1-hydroxyethyl]-1-(1H-pyrrolo[2,3-b]pyridin-6-ylmethyl)-1,3-dihydro-2H-indol-2-one]  98 nM
11. C[C@H](O)c1cccc2c1C(F)(F)C(=O)N2Cc1cccc2ccnn12 [Compound 104, 3,3-difluoro-4-[(1S)-1-hydroxyethyl]-1-(pyrazolo[1,5-a]pyridin-7-ylmethyl)-1,3-dihydro-2H-indol-2-one]  88 nM
12. CC(O)c1cccc2c1C(F)(F)C(=O)N2Cc1ccnc(F)c1 (stereo not drawn) [Compound 29, 3,3-difluoro-1-[(2-fluoropyridin-4-yl)methyl]-4-(1-hydroxyethyl)-1,3-dihydro-2H-indol-2-one]  77 nM
13. C[C@H](O)c1cccc2c1C(F)(F)C(=O)N2Cc1ccnc(F)c1 [Compound 42, 3,3-difluoro-1-[(2-fluoropyridin-4-yl)methyl]-4-[(1S)-1-hydroxyethyl]-1,3-dihydro-2H-indol-2-one]  50 nM
14. O=C1N(Cc2cncc(Cl)c2)c2cccc(C(O)C(F)(F)F)c2C1(F)F (single isomer, unassigned) [Compound 23, 1-[(5-chloropyridin-3-yl)methyl]-3,3-difluoro-4-(2,2,2-trifluoro-1-hydroxyethyl)-1,3-dihydro-2H-indol-2-one]  38 nM
15. C[C@H](O)c1cccc2c1C(F)(F)C(=O)N2Cc1ccc2ccccc2n1 [Compound 77, 3,3-difluoro-4-[(1S)-1-hydroxyethyl]-1-(quinolin-2-ylmethyl)-1,3-dihydro-2H-indol-2-one]  37 nM
16. C[C@H](O)c1cccc2c1C(F)(F)C(=O)N2Cc1cncc(-n2nccn2)c1 [Compound 84, 3,3-difluoro-4-[(1S)-1-hydroxyethyl]-1-{[5-(2H-1,2,3-triazol-2-yl)pyridin-3-yl]methyl}-1,3-dihydro-2H-indol-2-one]  35 nM
